This note sets out measurements from paper PMC12040169 (PLOS Biology, 2025).

What is called viability is a read-out of living cells in per cent, often relative to untreated cells.

Molecules are shown by their SMILES.

The first series can be described thus: in vitro. The settings on record: human, hela cells, % viability.
Take `Oc1ccccc1-c1ccnc(SC(F)F)n1` [CBK021971]: the viability at 28.5 h, 10 µM was 81.8%.

In the case of `C/C(=N\N=C1\N=C(O)C(CC(=O)O)S1)c1ccco1` (stereo not shown) [CBK021973], the viability at 28.5 h, 10 µM came to 96.8%.

Consider `Cc1ccc2nc(NC(=O)C(C)(C)C)nc(O)c2c1` [CBK021975], for which the viability at 28.5 h, 10 µM was determined as 97.7%.

Regarding `COc1cc(NC(=S)P(=O)(c2ccccc2)c2ccccc2)c(OC)cc1Cl` [CBK021976], the viability at 28.5 h, 10 µM worked out at 95.6%.

In the case of `Cc1nc2ccccc2n1C(F)(F)C(F)F` [CBK022023], the viability at 28.5 h, 10 µM came to 116%.

`Oc1cc(Cl)c(-c2ccccc2)nn1` [CBK022028]: the viability at 28.5 h, 10 µM amounted to 88.4%.

`C/N=C1/c2cn3ccccc3c2CCN1C` [CBK022058]: the viability at 28.5 h, 10 µM turned out to be 116%.

For the compound `O=C(c1ccno1)n1nccc1-c1cc(-c2ccccc2)no1` [CBK022074], the viability at 28.5 h, 10 µM was 101%.

In the case of `Cc1nnc(SCC(=O)Nc2nnc(C(C)C)s2)[nH]c1=O` [CBK022107], the viability at 28.5 h, 10 µM was 87%.

With `COc1cccc(-n2cnc3cccc(N)c32)c1` [CBK022114], the viability at 28.5 h, 10 µM is 94.9%.

On to `COc1ccc2cc([C@@H](O)C[C@@H](C)O)c(Cl)nc2c1` [CBK022146], for which the viability at 28.5 h, 10 µM was 104%.

Take `CC1(C)C2C(=O)C(c3ccccn3)=C(N)N2C(C)(C)C1(C)C` (stereo not shown) [CBK022153]: the viability at 28.5 h, 10 µM turned out to be 110%.

On to `Cn1ccc(C2=C(N)C(C#N)C3=C(CC(C)(C)CC3=O)O2)c1` (stereo not shown) [CBK022168], for which the viability at 28.5 h, 10 µM came to 109%.

With `COc1ccc2c(-c3cc(N)sn3)c(C)oc2c1` [CBK022260], the viability at 28.5 h, 10 µM came to 83.8%.

Take `Cc1cc(C)nc(N2CCN(C(=O)CCC(=O)NCc3cccc(C(F)(F)F)c3)CC2)n1` [CBK022261]: the viability at 28.5 h, 10 µM amounted to 107%.

As to `O=C(NC1CCCCC1)c1s/c(=N/O)nnc1Nc1ccccc1` [CBK022275], the viability at 28.5 h, 10 µM was found to be 93.8%.

As for `CCN(CC)C(=O)c1c(F)ccc(F)c1C(=O)O` [CBK022303], the viability at 28.5 h, 10 µM is 85%.

Regarding `O=C1C2C=NNC2C(=O)N1c1ccccc1` (stereo not shown) [CBK022326], the viability at 28.5 h, 10 µM was determined as 103%.

For `COCc1cc(O)nc(Cc2c(Cl)cccc2Cl)n1` [CBK022389], the viability at 28.5 h, 10 µM is 96.7%.

Regarding `O=C(c1ccc(Br)o1)n1cc(C(F)(F)F)ccc1=O` [CBK022391], the viability at 28.5 h, 10 µM was 108%.

For `Nc1nc2sc3c(c2cc1C(=O)N1CCOCC1)CCCC3` [CBK022399], the viability at 28.5 h, 10 µM turned out to be 96.1%.

For the compound `COc1ccc(S(=O)(=O)N(C)c2ccc(N3CCNCC3)c3ccccc23)cc1` [CBK022404C], the viability at 28.5 h, 10 µM is 94.9%.

Take `CC1(C)CC(=O)C2=C(C1)CC1(C)CC(C)(C)CC2(Nc2ccccn2)C1` (stereo not shown) [CBK022425]: the viability at 28.5 h, 10 µM turned out to be 121%.

With `Cc1ccccc1N1C(=O)c2ccc(Br)cc2C1=O` [CBK022430], the viability at 28.5 h, 10 µM stood at 90.9%.

Turning to `Cc1cc(NS(=O)(=O)c2cccc(Cl)c2C)on1` [CBK022499], the viability at 28.5 h, 10 µM was 92%.

Turning to `c1cc(OCc2cccs2)cc(N2CCNCC2)c1` [CBK022557F], the viability at 28.5 h, 10 µM was 89.3%.

Regarding `c1cc(COc2ccc(N3CCNCC3)nn2)co1` [CBK022562], the viability at 28.5 h, 10 µM came out at 95.7%.

On to `CS(=O)(=O)N1CC2(CCN(C(=O)[C@@H](N)COCc3ccccc3)CC2)c2ccccc21` [CBK022597C], for which the viability at 28.5 h, 10 µM was 104%.

For `O=C1OCc2ccc3c(c21)COCO3` [CBK022696], the viability at 28.5 h, 10 µM stood at 107%.

In the case of `CC(=O)NC(Cc1c[nH]c2ccccc12)/C(C)=N/O` (stereo not shown) [CBK022711], the viability at 28.5 h, 10 µM was found to be 120%.

With `Cc1ccc(S(=O)(=O)Nc2nnc(C3CCCCC3)s2)cc1` [CBK022722], the viability at 28.5 h, 10 µM was 101%.

On to `CC1=CC(C)C(=S)NC(C)=C1` (stereo not shown) [CBK022735], for which the viability at 28.5 h, 10 µM was 91%.

Consider `CC1=Nc2ccc(Cl)cc2C(C)(C)O1` [CBK022763C], for which the viability at 28.5 h, 10 µM stood at 107%.

With `Nc1ccccc1NC(=O)NC(=O)c1ccccc1` [CBK022767], the viability at 28.5 h, 10 µM came to 94%.

In the case of `Cc1cc(C(=O)O)c(C)cc1N` [CBK022781], the viability at 28.5 h, 10 µM worked out at 95.5%.

Consider `C/N=c1\cccccc1NC` [CBK022788], for which the viability at 28.5 h, 10 µM came to 110%.

Turning to `CCN(CC)CCC(C(=O)c1ccccc1)S(C)(=O)=O` (stereo not shown) [CBK022802], the viability at 28.5 h, 10 µM was found to be 88.8%.

In the case of `NC(=S)c1ccc2c(c1)OCO2` [CBK022803], the viability at 28.5 h, 10 µM was 86.3%.

For the compound `COc1ccc2c(c1)CCC1(C)C2=C(C(=O)O)CC1O` (stereo not shown) [CBK022814], the viability at 28.5 h, 10 µM turned out to be 103%.

On to `COc1ccc(S(=O)(=O)NC(=O)NCC2CC3C=CC2C3)cc1` (stereo not shown) [CBK022821], for which the viability at 28.5 h, 10 µM was found to be 88.7%.

With `OCC1CCC(O)C(CO)N1` (stereo not shown) [CBK022827C], the viability at 28.5 h, 10 µM is 86.5%.

For the compound `CCCCNC(=O)OC1CCN(CCc2ccccc2)CC1` [CBK022839C], the viability at 28.5 h, 10 µM worked out at 89.2%.

`CCCCSc1nnc(NS(=O)(=O)c2ccc(NC(C)=O)cc2)s1` [CBK022853]: the viability at 28.5 h, 10 µM was 98.5%.

For the compound `CN(C)CCCOC(=O)CN1c2ccccc2CCc2ccccc21` [CBK022863C], the viability at 28.5 h, 10 µM amounted to 97%.

Regarding `O=C(O)c1ccc(S(=O)(=O)c2ccc(C(=O)O)c(C(=O)O)c2)cc1C(=O)O` [CBK022872], the viability at 28.5 h, 10 µM is 93.1%.

Turning to `CN1c2ccccc2C(c2ccccc2)=NS1(=O)=O` [CBK022873], the viability at 28.5 h, 10 µM was 92.1%.

As to `Cc1noc(N)c1C1OC(=O)c2ccccc21` (stereo not shown) [CBK022932], the viability at 28.5 h, 10 µM is 104%.

For the compound `COc1ccc(-c2cc[nH]n2)c(OC)c1OC` [CBK022957C], the viability at 28.5 h, 10 µM stood at 82%.

Regarding `CCCCNC(=O)NS(N)(=O)=O` [CBK022990], the viability at 28.5 h, 10 µM was 109%.

Regarding `CC1=NS(=O)(=O)NC2=C1CCCC2` [CBK022998], the viability at 28.5 h, 10 µM worked out at 96.6%.

Take `CCN(CC)CCN1C(=O)CCC2(c3ccccc3)CCC(=O)C=C12` (stereo not shown) [CBK023010C]: the viability at 28.5 h, 10 µM is 105%.

As to `C/C(=N\NC(=N)N)C(F)(F)F` [CBK023019G], the viability at 28.5 h, 10 µM was 90.1%.

In the case of `Cc1cc(-c2ccccc2)nn(CCN2CCOCC2)c1=O` [CBK023022C], the viability at 28.5 h, 10 µM was determined as 88%.

Turning to `O=C1CN(Cc2ccc(Cl)cc2)CCO1` [CBK023036C], the viability at 28.5 h, 10 µM worked out at 88.7%.

Take `O=C1c2ccc(S(=O)(=O)c3ccc4c(c3)C(=O)N(CCO)C4=O)cc2C(=O)N1CCO` [CBK023065]: the viability at 28.5 h, 10 µM came to 112%.

On to `CCOC1=NCCN2CCc3cccc1c32` [CBK023113], for which the viability at 28.5 h, 10 µM is 117%.

Take `CCOC(=O)CC(O)(c1ccc(OC)cc1)c1cc(C)no1` (stereo not shown) [CBK023133]: the viability at 28.5 h, 10 µM came to 107%.

For `COc1cccc(CCNC(=O)CCN2C(=O)CCC2=O)c1` [CBK023150], the viability at 28.5 h, 10 µM worked out at 91.8%.

Take `C#CCn1c(=O)n(C)n(C)c1=O` [CBK023151]: the viability at 28.5 h, 10 µM came out at 89.4%.

As to `CSc1nc(Cl)c(-c2ccccc2)c(N(C)C)n1` [CBK023169], the viability at 28.5 h, 10 µM worked out at 96.9%.

Turning to `CC1CCCCN1CC(=O)N(C)C(C)COc1ccc(Cl)cc1` (stereo not shown) [CBK023201], the viability at 28.5 h, 10 µM is 87.8%.

For `CNCCOc1ccccc1O` [CBK023215C], the viability at 28.5 h, 10 µM amounted to 99.8%.

Still in this series, the particulars now being: human, hela cells, % viability, bulk resorufin, single well.
Turning to `O=C(O)C(O)(c1ccccc1)c1cccs1` (stereo not shown) [CBK022808], the viability at 28.5 h, 10 µM turned out to be 108%.

Take `Cc1cc(Cl)c(OC(=O)NC2CCCCC2)cc1C` [CBK022948]: the viability at 28.5 h, 10 µM stood at 90.1%.
